System: MV-4-11 cells
Assay: Gene expression microarray analysis (Affymetrix PrimeView) and GSEA
Format: cell-based, human
Set-up: RFU PODN (11730768_x_at) / Fold change /veh PODN (11730768_x_at) / RFU LINC00158 (11744669_a_at) / Fold change /veh LINC00158 (11744669_a_at) / RFU DUSP10 (11751237_a_at) / Fold change /veh DUSP10 (11751237_a_at) / RFU ID3 (11757404_x_at) / Fold change /veh ID3 (11757404_x_at) / RFU PLEKHG5 (11737974_s_at) / Fold change /veh PLEKHG5 (11737974_s_at) / RFU LRRC4B (11730491_at) / Fold change /veh LRRC4B (11730491_at) / RFU GIMAP4 (11747438_a_at) / Fold change /veh GIMAP4 (11747438_a_at) / RFU KRT8 (11758183_x_at) / Fold change /veh KRT8 (11758183_x_at) / RFU CNN1 (11734310_a_at) / Fold change /veh CNN1 (11734310_a_at) / RFU VPS37D (11726825_at) / Fold change /veh VPS37D (11726825_at) / RFU C10orf10 (11716522_x_at) / Fold change /veh C10orf10 (11716522_x_at) / RFU KIR2DL2 /// KIR2DL4 /// KIR2DL5A /// KIR2DL5B /// KIR2DS1 /// KIR2DS2 /// KIR2DS3 /// KIR2DS4 /// KIR3DL3 /// KIR3DL3 /// KIR3DS1 (11738374_at) / Fold change /veh KIR2DL2 /// KIR2DL4 /// KIR2DL5A /// KIR2DL5B /// KIR2DS1 /// KIR2DS2 /// KIR2DS3 /// KIR2DS4 /// KIR3DL3 /// KIR3DL3 /// KIR3DS1 (11738374_at) / RFU C1QL1 (11718748_at) / Fold change /veh C1QL1 (11718748_at) / RFU TMPRSS4 (11747572_a_at) / Fold change /veh TMPRSS4 (11747572_a_at) / RFU HAMP (11756126_x_at) / Fold change /veh HAMP (11756126_x_at) / RFU RNFT2 (11725882_a_at) / Fold change /veh RNFT2 (11725882_a_at) / RFU NR4A2 (11747474_a_at) / Fold change /veh NR4A2 (11747474_a_at) / RFU ABCC12 (11746883_a_at) / Fold change /veh ABCC12 (11746883_a_at) / RFU TMEM136 (11760407_x_at) / Fold change /veh TMEM136 (11760407_x_at) / RFU CLDN22 /// WWC2 (11732394_at) / Fold change /veh CLDN22 /// WWC2 (11732394_at) / RFU HLA-DPB1 (11760878_x_at) / Fold change /veh HLA-DPB1 (11760878_x_at) / RFU SPINT1 (11716480_a_at) / Fold change /veh SPINT1 (11716480_a_at) / RFU GAP43 (11754022_s_at) / Fold change /veh GAP43 (11754022_s_at) / RFU A4GNT (11735810_at) / Fold change /veh A4GNT (11735810_at) / RFU PRB3 (11715151_x_at) / Fold change /veh PRB3 (11715151_x_at) / RFU TUBB4B (11761932_at) / Fold change /veh TUBB4B (11761932_at) / RFU CAPN14 (11732068_a_at) / Fold change /veh CAPN14 (11732068_a_at) / RFU TMCC2 (11721928_a_at) / Fold change /veh TMCC2 (11721928_a_at) / RFU IRGQ (11745062_a_at) / Fold change /veh IRGQ (11745062_a_at) / RFU FAM174B (11720279_a_at) / Fold change /veh FAM174B (11720279_a_at) / RFU TMPRSS4 (11748680_a_at) / Fold change /veh TMPRSS4 (11748680_a_at) / RFU FAM212B (11763350_a_at) / Fold change /veh FAM212B (11763350_a_at) / RFU PLEKHG5 (11743358_a_at) / Fold change /veh PLEKHG5 (11743358_a_at) / RFU ZSCAN30 (11745921_a_at) / Fold change /veh ZSCAN30 (11745921_a_at) / RFU CMKLR1 (11741424_a_at) / Fold change /veh CMKLR1 (11741424_a_at) / RFU LOC101060620 /// MAPK8IP1 (11723275_at) / Fold change /veh LOC101060620 /// MAPK8IP1 (11723275_at) / RFU SPTSSB (11747773_x_at) / Fold change /veh SPTSSB (11747773_x_at) / RFU PRSS12 (11739890_at) / Fold change /veh PRSS12 (11739890_at) / RFU BIN1 (11741810_x_at) / Fold change /veh BIN1 (11741810_x_at) / RFU WNT11 (11732464_a_at) / Fold change /veh WNT11 (11732464_a_at) / RFU C10orf10 (11716521_a_at) / Fold change /veh C10orf10 (11716521_a_at) / RFU C5orf56 (11738089_at) / Fold change /veh C5orf56 (11738089_at) / RFU CYB561 (11721691_x_at) / Fold change /veh CYB561 (11721691_x_at) / RFU ANKRD19P (11752326_a_at) / Fold change /veh ANKRD19P (11752326_a_at) / RFU OR2T12 /// OR2T33 /// OR2T8 (11738714_s_at) / Fold change /veh OR2T12 /// OR2T33 /// OR2T8 (11738714_s_at) / RFU VCAN (11748164_a_at) / Fold change /veh VCAN (11748164_a_at) / RFU JSRP1 (11732532_at) / Fold change /veh JSRP1 (11732532_at) / RFU KRTAP10-11 (11738290_x_at) / Fold change /veh KRTAP10-11 (11738290_x_at) / RFU MYO3A (11730013_a_at) / Fold change /veh MYO3A (11730013_a_at) / RFU EBF3 (11725865_a_at) / Fold change /veh EBF3 (11725865_a_at) / RFU CAMK2N1 (11719241_x_at) / Fold change /veh CAMK2N1 (11719241_x_at) / RFU C5orf56 (11738088_a_at) / Fold change /veh C5orf56 (11738088_a_at) / RFU OLFML3 (11715873_a_at) / Fold change /veh OLFML3 (11715873_a_at) / RFU LOC100653217 /// NTM (11731650_a_at) / Fold change /veh LOC100653217 /// NTM (11731650_a_at) / RFU MAPK11 (11762145_a_at) / Fold change /veh MAPK11 (11762145_a_at) / RFU FIZ1 (11724087_x_at) / Fold change /veh FIZ1 (11724087_x_at) / RFU OASL (11726364_x_at) / Fold change /veh OASL (11726364_x_at) / RFU SOX15 (11748057_x_at) / Fold change /veh SOX15 (11748057_x_at) / RFU CD79A (11719716_a_at) / Fold change /veh CD79A (11719716_a_at) / RFU HIST1H1D (11736915_at) / Fold change /veh HIST1H1D (11736915_at) / RFU CASKIN2 (11723855_a_at) / Fold change /veh CASKIN2 (11723855_a_at) / RFU LOC730098 (11760151_x_at) / Fold change /veh LOC730098 (11760151_x_at) / RFU OR4N2 (11742367_at) / Fold change /veh OR4N2 (11742367_at) / RFU PRRT2 (11749266_a_at) / Fold change /veh PRRT2 (11749266_a_at) / RFU SNX32 (11753110_a_at) / Fold change /veh SNX32 (11753110_a_at) / RFU CDHR5 (11726645_a_at) / Fold change /veh CDHR5 (11726645_a_at) / RFU RCAN1 (11760418_a_at) / Fold change /veh RCAN1 (11760418_a_at) / RFU FAM167A (11723789_a_at) / Fold change /veh FAM167A (11723789_a_at) / RFU FAM26E (11764081_at) / Fold change /veh FAM26E (11764081_at) / RFU ISYNA1 (11749810_s_at) / Fold change /veh ISYNA1 (11749810_s_at) / RFU ACY1 (11761880_at) / Fold change /veh ACY1 (11761880_at) / RFU 11764098_at / Fold change /veh 11764098_at / RFU SAMD14 (11745864_x_at) / Fold change /veh SAMD14 (11745864_x_at) / RFU NPB (11741838_a_at) / Fold change /veh NPB (11741838_a_at) / RFU TMPRSS6 (11731388_a_at) / Fold change /veh TMPRSS6 (11731388_a_at) / RFU KRTAP10-2 (11738614_at) / Fold change /veh KRTAP10-2 (11738614_at) / RFU ARHGAP8 /// PRR5-ARHGAP8 (11727945_x_at) / Fold change /veh ARHGAP8 /// PRR5-ARHGAP8 (11727945_x_at) / RFU KRTAP5-7 /// NADSYN1 (11734609_at) / Fold change /veh KRTAP5-7 /// NADSYN1 (11734609_at) / RFU RASL12 (11751679_a_at) / Fold change /veh RASL12 (11751679_a_at) / RFU CDKN2B (11736163_a_at) / Fold change /veh CDKN2B (11736163_a_at) / RFU PRF1 (11729649_at) / Fold change /veh PRF1 (11729649_at) / RFU, ZNF638 /// ZNF638-IT1 / Fold change vs veh, ZNF638 /// ZNF638-IT1 / RFU, PANK3 / Fold change vs veh, PANK3 / RFU, SH3YL1 / Fold change vs veh, SH3YL1 / RFU, ZEB2 / Fold change vs veh, ZEB2 / RFU, NRIP1 / Fold change vs veh, NRIP1 / RFU, PTTG1IP / Fold change vs veh, PTTG1IP / RFU, CAPN2 / Fold change vs veh, CAPN2 / RFU, MED14 / Fold change vs veh, MED14 / RFU, SNORA58 / Fold change vs veh, SNORA58 / RFU, C1orf63 / Fold change vs veh, C1orf63 / RFU, LRRFIP1 / Fold change vs veh, LRRFIP1 / RFU, NDUFAF7 / Fold change vs veh, NDUFAF7 / RFU, SLC12A2 / Fold change vs veh, SLC12A2 / RFU, IBTK / Fold change vs veh, IBTK / RFU, ESF1 / Fold change vs veh, ESF1 / Fold change vs veh, TMEM50B / RFU, TAOK1 / Fold change vs veh, TAOK1 / RFU, ACBD3 / Fold change vs veh, ACBD3 / RFU, TMA16 / Fold change vs veh, TMA16 / RFU, RWDD3 / Fold change vs veh, RWDD3 / RFU, BCAT1 / Fold change vs veh, BCAT1 / RFU, EDEM3 / Fold change vs veh, EDEM3 / RFU, TMEM33 / Fold change vs veh, TMEM33 / RFU, WDR75 / Fold change vs veh, WDR75 / RFU, AHCTF1 / Fold change vs veh, AHCTF1 / RFU, TFRC / Fold change vs veh, TFRC / RFU, ZDHHC17 / Fold change vs veh, ZDHHC17 / RFU, NOM1 / Fold change vs veh, NOM1 / RFU, ARL8B / Fold change vs veh, ARL8B / RFU, ZBTB11 / Fold change vs veh, ZBTB11 / RFU, TAMM41 / Fold change vs veh, TAMM41 / RFU, KIAA1704 /// LOC100996395 / Fold change vs veh, KIAA1704 /// LOC100996395 / RFU, ING1 / Fold change vs veh, ING1 / RFU, TRMT61B / Fold change vs veh, TRMT61B / RFU, FUBP3 / Fold change vs veh, FUBP3 / RFU, TP53 / Fold change vs veh, TP53 / RFU, TNKS2 / Fold change vs veh, TNKS2 / RFU, ZFP14 / Fold change vs veh, ZFP14 / RFU, ACTR2 / Fold change vs veh, ACTR2 / RFU, PPP3R1 / Fold change vs veh, PPP3R1 / RFU, PIK3R1 / Fold change vs veh, PIK3R1 / RFU, HNRNPA1 / Fold change vs veh, HNRNPA1 / RFU, RNF170 / Fold change vs veh, RNF170 / RFU, ZNF28 / Fold change vs veh, ZNF28 / RFU, RNGTT / Fold change vs veh, RNGTT / RFU, OGT / Fold change vs veh, OGT / RFU, BRD1 / Fold change vs veh, BRD1 / RFU, MARS / Fold change vs veh, MARS / RFU, ZNF655 / Fold change vs veh, ZNF655 / RFU, FAHD1 / Fold change vs veh, FAHD1 / RFU, BDP1 / Fold change vs veh, BDP1 / RFU, LRRCC1 / Fold change vs veh, LRRCC1 / RFU, ARID1A / Fold change vs veh, ARID1A / RFU, ZNF146 / Fold change vs veh, ZNF146 / RFU, ZNF330 / Fold change vs veh, ZNF330 / RFU, GPN3 / Fold change vs veh, GPN3 / RFU, C9orf123 / Fold change vs veh, C9orf123 / RFU, N4BP2L2 / Fold change vs veh, N4BP2L2 / RFU, ARFIP1 / Fold change vs veh, ARFIP1 / RFU, FAM179B / Fold change vs veh, FAM179B / RFU, BCL10 / Fold change vs veh, BCL10 / RFU, UHRF1BP1L / Fold change vs veh, UHRF1BP1L / RFU, BET1 / Fold change vs veh, BET1 / RFU, CNOT2 / Fold change vs veh, CNOT2 / RFU, ZNF268 / Fold change vs veh, ZNF268 / Fold change vs veh, ZNF507 / RFU, DGCR2 / Fold change vs veh, DGCR2 / RFU, WDSUB1 / Fold change vs veh, WDSUB1 / Fold change vs veh, HSP90B1 /// MIR3652 / RFU, ADSS / Fold change vs veh, ADSS / RFU, GK / Fold change vs veh, GK / RFU, ZNF148 / Fold change vs veh, ZNF148 / RFU, TAF9 / Fold change vs veh, TAF9 / RFU, SLC1A5 / Fold change vs veh, SLC1A5 / RFU, SLMO2 / Fold change vs veh, SLMO2 / RFU, ABCC4 / Fold change vs veh, ABCC4 / RFU, LOC101060439 /// RAP1B / Fold change vs veh, LOC101060439 /// RAP1B / RFU, RFX7 / Fold change vs veh, RFX7 / RFU, GTPBP10 / Fold change vs veh, GTPBP10 / RFU, CNEP1R1 / Fold change vs veh, CNEP1R1 / RFU, BIVM-ERCC5 /// ERCC5 / Fold change vs veh, BIVM-ERCC5 /// ERCC5 / RFU, ILF3 / Fold change vs veh, ILF3 / RFU 11762660_at / Fold change /veh 11762660_at / RFU VCAN (11757783_s_at) / Fold change /veh VCAN (11757783_s_at) / RFU DDX43 (11728927_at) / Fold change /veh DDX43 (11728927_at) / RFU KRT8 (11758188_x_at) / Fold change /veh KRT8 (11758188_x_at) / RFU NKD1 (11759106_at) / Fold change /veh NKD1 (11759106_at) / RFU SRD5A1 (11742802_a_at) / Fold change /veh SRD5A1 (11742802_a_at) / RFU TPSAB1 /// TPSB2 (11721975_s_at) / Fold change /veh TPSAB1 /// TPSB2 (11721975_s_at) / RFU GSTM3 (11746129_a_at) / Fold change /veh GSTM3 (11746129_a_at) / RFU IL23R (11737362_x_at) / Fold change /veh IL23R (11737362_x_at) / RFU TMEM51 (11727254_a_at) / Fold change /veh TMEM51 (11727254_a_at) / RFU PIWIL2 (11732686_x_at) / Fold change /veh PIWIL2 (11732686_x_at) / RFU ORM1 (11744905_x_at) / Fold change /veh ORM1 (11744905_x_at) / RFU CCDC152 (11743942_at) / Fold change /veh CCDC152 (11743942_at) / RFU ECM1 (11717891_a_at) / Fold change /veh ECM1 (11717891_a_at) / RFU IL23R (11748794_a_at) / Fold change /veh IL23R (11748794_a_at) / RFU TNFAIP8L3 (11732012_x_at) / Fold change /veh TNFAIP8L3 (11732012_x_at) / RFU MBOAT4 (11741988_at) / Fold change /veh MBOAT4 (11741988_at) / RFU 11764193_at / Fold change /veh 11764193_at / RFU TMEM53 (11763286_at) / Fold change /veh TMEM53 (11763286_at) / RFU MAGEB2 (11727129_at) / Fold change /veh MAGEB2 (11727129_at) / RFU TMEM200A (11744735_a_at) / Fold change /veh TMEM200A (11744735_a_at) / RFU CCDC152 (11751479_a_at) / Fold change /veh CCDC152 (11751479_a_at) / RFU FAM211A (11726209_a_at) / Fold change /veh FAM211A (11726209_a_at) / RFU RGS16 (11746705_a_at) / Fold change /veh RGS16 (11746705_a_at) / RFU VCAN (11755009_s_at) / Fold change /veh VCAN (11755009_s_at) / RFU RHOB (11743442_s_at) / Fold change /veh RHOB (11743442_s_at) / RFU RGS16 (11720943_a_at) / Fold change /veh RGS16 (11720943_a_at) / RFU RGS16 (11720944_at) / Fold change /veh RGS16 (11720944_at) / RFU, VPS4B / Fold change vs veh, VPS4B / RFU, CREB1 / Fold change vs veh, CREB1 / RFU, DNAJC13 / Fold change vs veh, DNAJC13 / RFU, GNAQ / Fold change vs veh, GNAQ / RFU, CDK5R1 / Fold change vs veh, CDK5R1 / RFU, ZRANB3 / Fold change vs veh, ZRANB3 / RFU, CUL4A / Fold change vs veh, CUL4A / RFU, CCNY / Fold change vs veh, CCNY / RFU, UFL1 / Fold change vs veh, UFL1 / RFU, COG3 / Fold change vs veh, COG3 / RFU, DIAPH2 / Fold change vs veh, DIAPH2 / RFU, SKA2 / Fold change vs veh, SKA2 / RFU, AFF3 / Fold change vs veh, AFF3 / RFU, LMF1 / Fold change vs veh, LMF1 / RFU, IPO11 / Fold change vs veh, IPO11 / RFU, DFFB / Fold change vs veh, DFFB / RFU, FOXP1 / Fold change vs veh, FOXP1 / RFU, CARD8 / Fold change vs veh, CARD8 / RFU, STRN3 / Fold change vs veh, STRN3 / RFU, ADK / Fold change vs veh, ADK / RFU, RASSF2 / Fold change vs veh, RASSF2 / RFU, WIPF1 / Fold change vs veh, WIPF1 / RFU, LARP1B / Fold change vs veh, LARP1B / RFU, RASA1 / Fold change vs veh, RASA1 / RFU, RB1 / Fold change vs veh, RB1 / RFU, PPFIA1 / Fold change vs veh, PPFIA1 / RFU, MAT2A / Fold change vs veh, MAT2A / RFU, CCT5 / Fold change vs veh, CCT5 / RFU, WDR92 / Fold change vs veh, WDR92 / RFU, CUX1 / Fold change vs veh, CUX1 / RFU, TTC7A / Fold change vs veh, TTC7A / RFU, TMEM135 / Fold change vs veh, TMEM135 / RFU, DEPTOR / Fold change vs veh, DEPTOR / RFU, CPM / Fold change vs veh, CPM / RFU, DNAJB6 / Fold change vs veh, DNAJB6 / RFU, CACNA2D3 / Fold change vs veh, CACNA2D3 / RFU, DTX4 / Fold change vs veh, DTX4 / RFU, TFCP2 / Fold change vs veh, TFCP2 / RFU, GMCL1 /// GMCL1P1 / Fold change vs veh, GMCL1 /// GMCL1P1 / RFU, AEBP2 / Fold change vs veh, AEBP2 / RFU, SNHG1 /// SNORD22 /// SNORD25 /// SNORD26 /// SNORD27 /// SNORD28 /// SNORD29 /// SNORD31 / Fold change vs veh, SNHG1 /// SNORD22 /// SNORD25 /// SNORD26 /// SNORD27 /// SNORD28 /// SNORD29 /// SNORD31 / Fold change (Aza/veh), C12orf56 (ProbeSet 11735607_a_at) / Fold change (ACY-1035/veh), C12orf56 (ProbeSet 11735607_a_at) / Fold change (Aza/veh), FGFR1OP (ProbeSet 11751329_s_at) / Fold change (ACY-1035/veh), FGFR1OP (ProbeSet 11751329_s_at) / Fold change (Aza/veh), VPS36 (ProbeSet 11739960_a_at) / Fold change (ACY-1035/veh), VPS36 (ProbeSet 11739960_a_at) / RFU SYPL1 (11715823_x_at) / Fold change /veh SYPL1 (11715823_x_at) / RFU IGFBP7 (11715501_s_at) / Fold change /veh IGFBP7 (11715501_s_at) / RFU REEP3 (11722064_at) / Fold change /veh REEP3 (11722064_at) / RFU IGLL1 (11728026_x_at) / Fold change /veh IGLL1 (11728026_x_at): dose or concentration left out as unconfirmed
Details: ProbeSet 11749781_s_at; LIST B

Nc1ccc(-c2cccs2)cc1NC(=O)c1ccc2c(c1)cc(C1CC1)n2CCN1CCOCC1 [ACY-1035]
Fold change vs veh, BCAT1: 0.87
